Results published in ChEMBL document CHEMBL4699475, “Campafungins: Inhibitors of Candida albicans and Cryptococcus neoformans Hyphal Growth” (2020).
Activity calls are given as the source filed them. The rule behind the calls is not given here.

Columns and labels:
Aspergillus fumigatus [1] = test: Antimicrobial activity against Aspergillus fumigatus FSGC A1240 assessed as reduction in microbial growth after 48 hrs by resazurin staining based liquid serial dilution assay; type: functional
Cryptococcus neoformans [2] = test: Antimicrobial activity against Cryptococcus neoformans H99 assessed as reduction in microbial growth after 72 hrs by resazurin staining based liquid serial dilution assay; type: functional
Nakaseomyces glabratus = test: Antimicrobial activity against Candida glabrata ATCC 2001 assessed as reduction in microbial growth after 48 hrs by resazurin staining based liquid serial dilution assay; type: functional
Candida albicans [3] = test: Antimicrobial activity against Candida albicans ATCC 10231 assessed as reduction in microbial growth after 48 hrs by resazurin staining based liquid serial dilution assay; type: functional
Candida tropicalis = test: Antimicrobial activity against Candida tropicalis ATCC 750 assessed as reduction in microbial growth after 48 hrs by resazurin staining based liquid serial dilution assay; type: functional
Staphylococcus aureus = test: Antimicrobial activity against Staphylococcus aureus ATCC 43300 assessed as reduction in microbial growth after 24 hrs by resazurin staining based liquid serial dilution assay; type: functional
Cryptococcus neoformans [4] = test: Effect on cAMP signaling mediated virulence associated melanin production phenotype in Cryptococcus neoformans H99 incubated for 72 hrs in presence of L-DOPA; type: functional
Cryptococcus neoformans [5] = test: Effect on cAMP signaling mediated virulence associated encapsulation phenotype in Cryptococcus neoformans H99 incubated for 72 hrs by India Ink staining based analysis; type: functional
[6] = system: Schizosaccharomyces pombe; test: Antimicrobial activity against Schizosaccharomyces pombe strain SAK1 harboring MJ-1682 efflux mutant assessed as reduction in microbial growth by resazurin staining based CLSI method; type: functional
Aspergillus fumigatus [7] = test: Inhibition of hyphal extension in Aspergillus fumigatus AF293 at 10 ug/ml measured after 48 hrs by microscopic analysis; type: functional, organism-based; conditions: dose 10.0 µg/ml
Cryptococcus neoformans [8] = test: Antimicrobial activity against Cryptococcus neoformans H99 harboring pde1 deletion mutant assessed as reduction in microbial growth after 72 hrs by resazurin staining based liquid serial dilution assay; type: functional, organism-based
Cryptococcus neoformans [9] = test: Antimicrobial activity against Cryptococcus neoformans H99 harboring pka1 deletion mutant assessed as reduction in microbial growth after 72 hrs by resazurin staining based liquid serial dilution assay; type: functional, organism-based
Candida albicans [10] = test: Inhibition of hyphal extension in Candida albicans SC3514 at 10 ug/ml measured after 24 to 48 hrs by microscopic analysis; type: functional, organism-based; conditions: dose 10.0 µg/ml, time 24-48 hrs
Cryptococcus neoformans [11] = test: Antimicrobial activity against Cryptococcus neoformans H99 harboring cac1 deletion mutant assessed as reduction in microbial growth after 72 hrs by resazurin staining based liquid serial dilution assay; type: functional, organism-based
Aspergillus fumigatus [12] = test: Antimicrobial activity against Aspergillus fumigatus AF293 assessed as reduction in microbial growth after 48 hrs by resazurin staining based liquid serial dilution assay; type: functional
Candida albicans [13] = test: Inhibition of hyphal extension in Candida albicans SC3514 at 10 ug/ml measured at >48 hrs by microscopic analysis; type: functional, organism-based; conditions: dose 10.0 µg/ml, time hrs >48
Cryptococcus neoformans [14] = test: Antimicrobial activity against Cryptococcus neoformans H99 harboring gpa1 deletion mutant assessed as reduction in microbial growth after 72 hrs by resazurin staining based liquid serial dilution assay; type: functional, organism-based
Cryptococcus neoformans [15] = test: Antimicrobial activity against Cryptococcus neoformans H99 harboring pkr1 deletion mutant assessed as reduction in microbial growth after 72 hrs by resazurin staining based liquid serial dilution assay; type: functional, organism-based
[16] = system: Schizosaccharomyces pombe; test: Antimicrobial activity against Schizosaccharomyces pombe strain SAK1 assessed as reduction in microbial growth by resazurin staining based CLSI method; type: functional

SMILES	MIC (Aspergillus fumigatus [1])	MIC (Cryptococcus neoformans [2])	MIC (Nakaseomyces glabratus)	MIC (Candida albicans [3])	MIC (Candida tropicalis)	MIC (Staphylococcus aureus)	Activity (Cryptococcus neoformans [4])	Activity (Cryptococcus neoformans [5])	MIC [6]	inhibition (Aspergillus fumigatus [7])	Activity (Cryptococcus neoformans [8])	Activity (Cryptococcus neoformans [9])	inhibition (Candida albicans [10])	Activity (Cryptococcus neoformans [11])	MIC (Aspergillus fumigatus [12])	inhibition (Candida albicans [13])	Activity (Cryptococcus neoformans [14])	Activity (Cryptococcus neoformans [15])	MIC [16]
C/C=C(\C)[C@@]1(O)[C@@H](/C=C/C=C/C=C/C=C/C(=O)O)[C@@H]2CC=C(C)C[C@H]2[C@@H]2O[C@@H]21	64 µg/mL	4 µg/mL	> 128 µg/mL	128 µg/mL	64 µg/mL	32 µg/mL	–	–	–	–	–	–	–	–	–	–	–	–	–
C/C=C(\C)[C@]1(O)C=C[C@@H]2CC(C)=CC[C@H]2[C@]1(O)/C=C/C=C/C=C\C=C\C=C\C(=O)O	64 µg/mL	8 µg/mL	> 128 µg/mL	> 128 µg/mL	64 µg/mL	32 µg/mL	–	–	–	–	–	–	–	–	–	–	–	–	–
C\C=C(/C=C/C=C/C=C/C=C/C(=O)O)[C@]1(O)[C@H]2CC=C(C)C[C@@H]2C=C[C@@]1(C)O	64 µg/mL	8 µg/mL	> 128 µg/mL	128 µg/mL	64 µg/mL	64 µg/mL	inactive	inactive	2 µg/mL	Active	Active	Active	Active	Active	38 µg/mL	inactive	Active	Active	10 µg/mL

Continued by falling MIC (Aspergillus fumigatus [1]), values first:

MIC (Aspergillus fumigatus [1])	MIC (Cryptococcus neoformans [2])	MIC (Nakaseomyces glabratus)	MIC (Candida albicans [3])	MIC (Candida tropicalis)	MIC (Staphylococcus aureus)	SMILES	Activity (Cryptococcus neoformans [4])	Activity (Cryptococcus neoformans [5])	MIC [6]	inhibition (Aspergillus fumigatus [7])	Activity (Cryptococcus neoformans [8])	Activity (Cryptococcus neoformans [9])	inhibition (Candida albicans [10])	Activity (Cryptococcus neoformans [11])	MIC (Aspergillus fumigatus [12])	inhibition (Candida albicans [13])	Activity (Cryptococcus neoformans [14])	Activity (Cryptococcus neoformans [15])	MIC [16]
64 µg/mL	4 µg/mL	> 128 µg/mL	128 µg/mL	64 µg/mL	32 µg/mL	C/C=C(\C)[C@]1(O)C=C[C@@H]2CC(C)=CC[C@H]2[C@]1(O)/C=C/C=C/C=C\C=C\C(=O)O	–	–	–	–	–	–	–	–	–	–	–	–	–
0.74 µg/mL	0.36 µg/mL	0.18 µg/mL	0.36 µg/mL	0.36 µg/mL	–	C[C@@H]1[C@H](O)[C@@H](C)/C=C/C=C/C=C/C=C/C=C/C=C/C=C/[C@H](O[C@@H]2O[C@H](C)[C@@H](O)[C@H](N)[C@@H]2O)C[C@@H]2O[C@](O)(C[C@@H](O)C[C@@H](O)[C@H](O)CC[C@@H](O)C[C@@H](O)CC(=O)O[C@H]1C)C[C@H](O)[C@H]2C(=O)O [AMPHOTERICIN B]	–	–	–	–	–	–	–	–	–	–	–	–	–
